Source: ChEMBL document CHEMBL3045199, “Synthesis of some (E)-6-[2-(furan-2-yl)ethenyl]-1,2,4-triazin-5-ones and their biological evaluation as antitumor agents” (2013)

Experiments:
Format in all cases: functional
[1] = test system: Hs-578T; assay: Cytotoxicity against Homo sapiens (human) Hs 578T cells after 48 hr by SRB assay
[2] = test system: BT-549; assay: Cytotoxicity against Homo sapiens (human) BT549 cells after 48 hr by SRB assay; conditions: BT-549, 48 h
[3] = test system: MDA-MB-231; assay: Cytotoxicity against Homo sapiens (human) MDA-MB-231 cells after 48 hr by SRB assay; conditions: MDA-MB-231, 48 h
[4] = test system: PC-3; assay: Cytotoxicity against Homo sapiens (human) PC3 cells after 48 hr by SRB assay; conditions: PC-3, 48 h
[5] = test system: RXF 393; assay: Cytotoxicity against Homo sapiens (human) RXF393 cells after 48 hr by SRB assay; conditions: RXF 393, 48 h
[6] = test system: CAKI-1; assay: Cytotoxicity against Homo sapiens (human) Caki1 cells after 48 hr by SRB assay; conditions: CAKI-1, 48 h
[7] = test system: A498; assay: Cytotoxicity against Homo sapiens (human) A498 cells after 48 hr by SRB assay; conditions: A498, 48 h
[8] = test system: 786-0; assay: Cytotoxicity against Homo sapiens (human) 786-0 cells after 48 hr by SRB assay; conditions: 786-0, 48 h
[9] = test system: SK-OV-3; assay: Cytotoxicity against Homo sapiens (human) SKOV3 cells after 48 hr by SRB assay; conditions: SK-OV-3, 48 h
[10] = test system: NCI-H226; assay: Cytotoxicity against Homo sapiens (human) NCI-H226 cells after 48 hr by SRB assay; conditions: NCI-H226, 48 h
[11] = test system: HOP-62; assay: Cytotoxicity against Homo sapiens (human) HOP62 cells after 48 hr by SRB assay; conditions: HOP-62, 48 h
[12] = test system: HOP-92; assay: Cytotoxicity against Homo sapiens (human) HOP92 cells after 48 hr by SRB assay; conditions: HOP-92, 48 h
[13] = test system: A549; assay: Cytotoxicity against Homo sapiens (human) A549 cells after 48 hr by SRB assay; conditions: A549, 48 h
[14] = test system: EKVX; assay: Cytotoxicity against Homo sapiens (human) EKVX cells after 48 hr by SRB assay
[15] = test system: RPMI-8226; assay: Cytotoxicity against Homo sapiens (human) RPMI8226 cells after 48 hr by SRB assay; conditions: RPMI-8226, 48 h
[16] = test system: K562; assay: Cytotoxicity against Homo sapiens (human) K562 cells after 48 hr by SRB assay; conditions: K562, 48 h
[17] = test system: MOLT-4; assay: Cytotoxicity against Homo sapiens (human) MOLT4 cells after 48 hr by SRB assay; conditions: MOLT-4, 48 h
[18] = test system: CCRF-CEM; assay: Cytotoxicity against Homo sapiens (human) CCRF-CEM cells after 48 hr by SRB assay
[19] = test system: HL-60(TB); assay: Cytotoxicity against Homo sapiens (human) HL-60(TB) cells after 48 hr by SRB assay; conditions: HL-60, 48 h
[20] = test system: OVCAR-4; assay: Cytotoxicity against Homo sapiens (human) OVCAR4 cells after 48 hr by SRB assay; conditions: OVCAR-4, 48 h
[21] = test system: OVCAR-5; assay: Cytotoxicity against Homo sapiens (human) OVCAR5 cells after 48 hr by SRB assay; conditions: OVCAR-5, 48 h
[22] = test system: OVCAR-3; assay: Cytotoxicity against Homo sapiens (human) OVCAR3 cells after 48 hr by SRB assay; conditions: OVCAR-3, 48 h
[23] = test system: SK-MEL-2; assay: Cytotoxicity against Homo sapiens (human) SK-MEL-2 cells after 48 hr by SRB assay; conditions: SK-MEL-2, 48 h
[24] = test system: Malme-3M; assay: Cytotoxicity against Homo sapiens (human) MALME-3M cells after 48 hr by SRB assay
[25] = test system: U-251; assay: Cytotoxicity against Homo sapiens (human) U251 cells after 48 hr by SRB assay; conditions: U-251, 48 h
[26] = test system: SNB-75; assay: Cytotoxicity against Homo sapiens (human) SNB75 cells after 48 hr by SRB assay; conditions: SNB-75, 48 h
[27] = test system: SF-539; assay: Cytotoxicity against Homo sapiens (human) SF539 cells after 48 hr by SRB assay; conditions: SF-539, 48 h
[28] = test system: SF-268; assay: Cytotoxicity against Homo sapiens (human) SF268 cells after 48 hr by SRB assay; conditions: SF-268, 48 h
[29] = test system: HT-29; assay: Cytotoxicity against Homo sapiens (human) HT-29 cells after 48 hr by SRB assay; conditions: HT-29, 48 h
[30] = test system: HCT-116; assay: Cytotoxicity against Homo sapiens (human) HCT116 cells after 48 hr by SRB assay; conditions: HCT-116, 48 h
[31] = test system: HCT-15; assay: Cytotoxicity against Homo sapiens (human) HCT15 cells after 48 hr by SRB assay; conditions: HCT-15, 48 h
[32] = test system: HCC 2998; assay: Cytotoxicity against Homo sapiens (human) HCC2998 cells after 48 hr by SRB assay; conditions: HCC 2998, 48 h
[33] = test system: NCI-H522; assay: Cytotoxicity against Homo sapiens (human) NCI-H522 cells after 48 hr by SRB assay; conditions: NCI-H522, 48 h
[34] = test system: NCI-H322M; assay: Cytotoxicity against Homo sapiens (human) NCI-H322M cells after 48 hr by SRB assay
[35] = read-out: LC50 (the source's name)

Nc1cc(-c2ccc(Cl)cc2)nn1-c1nc(=O)c(/C=C/c2ccco2)n[nH]1
GI50 [1]: 8.51 µM | TGI [2]: 43.8 µM | GI50 ([2]; read-out: GI50): 4.42 µM | CC50 [2, 35]: > 100 µM | GI50 ([2]; read-out: pGI50 (converted)): 4.47 µM | LC50 (lethal concentration, 50%) [3]: > 100 µM | TGI [3]: > 100 µM | GI50 ([3]; read-out: GI50): 13.9 µM | GI50 ([3]; read-out: pGI50 (converted)): 13.8 µM | LC50 (50% lethal concentration) [4]: > 100 µM | TGI [4]: 56.2 µM | GI50 ([4]; read-out: GI50): 5.6 µM | GI50 ([4]; read-out: pGI50 (converted)): 5.62 µM | LC50 [5]: > 100 µM | TGI [5]: 54.9 µM | GI50 ([5]; read-out: GI50): 13.1 µM | GI50 ([5]; read-out: pGI50 (converted)): 13.2 µM | LC50 [6]: > 100 µM | TGI [6]: 4.6 µM | GI50 ([6]; read-out: GI50): 0.37 µM | GI50 ([6]; read-out: pGI50 (converted)): 0.372 µM | LC50 [7]: > 100 µM | TGI [7]: 6.62 µM | GI50 ([7]; read-out: GI50): 1.62 µM | GI50 ([7]; read-out: pGI50 (converted)): 1.62 µM | LC50 [8]: > 100 µM | TGI [8]: 21.2 µM | GI50 ([8]; read-out: GI50): 3.98 µM | GI50 ([8]; read-out: pGI50 (converted)): 3.98 µM | LC50 [9]: > 100 µM | TGI [9]: 7.43 µM | GI50 ([9]; read-out: GI50): 5.58 µM | GI50 ([9]; read-out: pGI50 (converted)): 5.62 µM | LC50 (lethal concentration, 50% cell kill) [10]: > 100 µM | TGI [10]: 75.6 µM | GI50 ([10]; read-out: GI50): 12.2 µM | GI50 ([10]; read-out: pGI50 (converted)): 12.3 µM | LC50 (concentration killing 50% of cells) [11]: > 100 µM | TGI [11]: 76.8 µM | GI50 ([11]; read-out: GI50): 5.77 µM | GI50 ([11]; read-out: pGI50 (converted)): 5.75 µM | LC50 [12]: > 100 µM | TGI [12]: 9.28 µM | GI50 ([12]; read-out: GI50): 1.61 µM | GI50 ([12]; read-out: pGI50 (converted)): 1.62 µM | LC50 [13]: > 100 µM | TGI [13]: 34.2 µM | GI50 ([13]; read-out: GI50): 3.48 µM | GI50 ([13]; read-out: pGI50 (converted)): 3.47 µM | TGI [14]: 31.1 µM | GI50 ([14]; read-out: GI50): 3.57 µM | CC50 [14, 35]: > 100 µM | GI50 ([14]; read-out: pGI50 (converted)): 3.55 µM | LC50 [15]: > 100 µM | TGI [15]: 23.2 µM | GI50 ([15]; read-out: GI50): 3.03 µM | GI50 ([15]; read-out: pGI50 (converted)): 3.02 µM | LC50 [16]: > 100 µM | TGI [16]: 23 µM | GI50 ([16]; read-out: GI50): 2.79 µM | GI50 ([16]; read-out: pGI50 (converted)): 2.75 µM | TGI [17]: 18.5 µM | GI50 ([17]; read-out: GI50): 2.01 µM | CC50 [17, 35]: > 100 µM | GI50 ([17]; read-out: pGI50 (converted)): 2 µM | LC50 [18]: > 100 µM | TGI [18]: 16.8 µM | GI50 ([18]; read-out: GI50): 2.88 µM | GI50 ([18]; read-out: pGI50 (converted)): 2.88 µM | LC50 [19]: > 100 µM | TGI [19]: 8.19 µM | GI50 ([19]; read-out: GI50): 2.83 µM | GI50 ([19]; read-out: pGI50 (converted)): 2.82 µM | LC50 [20]: > 100 µM | TGI [20]: 28.8 µM | GI50 ([20]; read-out: GI50): 3.45 µM | GI50 ([20]; read-out: pGI50 (converted)): 3.47 µM | LC50 (50% lethal concentration) [21]: > 100 µM | TGI [21]: 82 µM | GI50 ([21]; read-out: GI50): 5.49 µM | GI50 ([21]; read-out: pGI50 (converted)): 5.5 µM | LC50 (50% lethal concentration) [22]: 31.8 µM | TGI [22]: 5.2 µM | GI50 ([22]; read-out: GI50): 1.48 µM | GI50 ([22]; read-out: pGI50 (converted)): 1.48 µM | TGI [23]: 77.9 µM | GI50 ([23]; read-out: GI50): 15.6 µM | CC50 [23, 35]: > 100 µM | GI50 ([23]; read-out: pGI50 (converted)): 15.5 µM | LC50 [24]: > 100 µM | TGI [24]: 53.1 µM | GI50 ([24]; read-out: GI50): 11 µM | GI50 ([24]; read-out: pGI50 (converted)): 11 µM | TGI [25]: 84.8 µM | GI50 ([25]; read-out: GI50): 4.47 µM | CC50 [25, 35]: > 100 µM | GI50 ([25]; read-out: pGI50 (converted)): 4.47 µM | TGI [26]: 37.2 µM | GI50 ([26]; read-out: GI50): 10.6 µM | CC50 [26, 35]: > 100 µM | GI50 ([26]; read-out: pGI50 (converted)): 10.7 µM | TGI [27]: 26.1 µM | GI50 ([27]; read-out: GI50): 5.49 µM | CC50 [27, 35]: > 100 µM | GI50 ([27]; read-out: pGI50 (converted)): 5.5 µM | TGI [28]: 25.1 µM | GI50 ([28]; read-out: GI50): 1.99 µM | CC50 [28, 35]: > 100 µM | GI50 ([28]; read-out: pGI50 (converted)): 2 µM | TGI [29]: > 100 µM | GI50 ([29]; read-out: GI50): 7.82 µM | CC50 [29, 35]: > 100 µM | GI50 ([29]; read-out: pGI50 (converted)): 7.76 µM | TGI [30]: 15.6 µM | GI50 ([30]; read-out: GI50): 2.92 µM | CC50 [30, 35]: > 100 µM | GI50 ([30]; read-out: pGI50 (converted)): 2.88 µM | TGI [31]: > 100 µM | GI50 ([31]; read-out: GI50): 1.89 µM | CC50 [31, 35]: > 100 µM | GI50 ([31]; read-out: pGI50 (converted)): 1.91 µM | TGI [32]: > 100 µM | GI50 ([32]; read-out: GI50): 5.59 µM | CC50 [32, 35]: > 100 µM | GI50 ([32]; read-out: pGI50 (converted)): 5.62 µM | TGI [33]: 36.8 µM | GI50 ([33]; read-out: GI50): 5.12 µM | CC50 [33, 35]: > 100 µM | GI50 ([33]; read-out: pGI50 (converted)): 5.13 µM | TGI [34]: 38.2 µM | GI50 ([34]; read-out: GI50): 1.47 µM | CC50 [34, 35]: > 100 µM | GI50 ([34]; read-out: pGI50 (converted)): 1.48 µM
